Source: PMC3242765, “Inhibitors of Alphavirus Entry and Replication Identified with a Stable Chikungunya Replicon Cell Line and Virus-Based Assays” (PLoS ONE, 2011)
Structures can show the parent of a compound that is named as a salt. Where two headings read alike, the source gives them in different places.

How the values were obtained:
CHIKV replicon = assay: microbe, parasite or virus in culture; assay type: cell-based, Chikungunya virus (CHIKV)
SFVts9-Rluc = assay type: cell-based, Semliki Forest virus (SFV)
SFV [1] = assay: Viral yield analysis using a plaque assay; assay type: cell-based, Semliki Forest virus (SFV); conditions: for SFV yield: BHK cells, MOI 0.01, 50 µM compound, 16 h, untreated control 1.4×10^9 PFU/ml; for Decrease of SFV titer versus untreated control: 50 µM compound, MOI 0.01, 16 h
SFV-Rluc [2] = conditions: for IC50: read-out: SFV IC50
SFV [3] = assay: CPE reduction assay, SFV (WST-1); assay type: cell-based, Semliki Forest virus (SFV); conditions: read-out: SFV IC50 (CPE reduction)
BHK cells = assay: Cell viability ATP assay, BHK cells; assay type: cell-based, hamster; conditions: read-out: Cell viability IC50
SFV-Rluc [4] = assay: microbe, parasite or virus in culture; conditions: Semliki Forest virus, BHK, 14 h, read-out: SFV IC50
SINV = assay: CPE reduction assay, SINV (WST-1); assay type: cell-based, Sindbis virus (SINV); conditions: read-out: SINV IC50 (CPE reduction)
CHIKV-Rluc = assay: microbe, parasite or virus in culture; assay type: cell-based, Chikungunya virus (CHIKV); conditions: read-out: CHIKV-Rluc IC50
BHK-CHIKV-NCT cells = assay: Cell viability ATP assay, BHK-CHIKV-NCT cells; assay type: cell-based, hamster; conditions: Mesocricetus auratus, 48 h, read-out: Cell viability IC50, ATP assay, 48 h exposure of BHK-CHIKV-NCT cells, up to 200 µM
[5] = Semliki Forest virus, BHK, 22 h
[6] = Mesocricetus auratus, BHK, 48 h
[7] = Chikungunya virus, 48 h, read-out: EGFP IC50
[8] = Chikungunya virus, 48 h, read-out: Rluc IC50
[9] = ATP assay, 48 h exposure of BHK cells

Row | Compound | CHIKV replicon % left (CHIKV replicon) | SFV yield (SFV [1]) | SFV replication % left (surviving fraction, remaining percentage of SFV replication) (SFV-Rluc [2]) | IC50 (SFV [3]; [5]) | IC50 (BHK cells; [6]) | IC50 (SFV-Rluc [4]) | IC50 (SINV; Sindbis virus, BHK, 24 h) | SI (selectivity index) (SFV-Rluc [2]) | also measured
1 | CSc1ccc2c(c1)N(CCC1CCCCN1C)c1ccccc1S2 (centres unmarked) [Thioridazine, reference compound] | 95.4% | 6.8×10^8 PFU/ml | 11.6% | – | – | – | – | – | Effect on SFV entry (Rluc activity) (SFVts9-Rluc): decreased the Rluc activity
2 | OCCN1CCN(CCCN2c3ccccc3C=Cc3ccccc32)CC1 [Opipramol] | 101.5% | 2.5×10^8 PFU/ml | 27.5% | 25 µM | > 200 µM | 19.7 µM | 31 µM | >10.2 | –
3 | Oc1cccc(O)c1O [Pyrogallol] | 89.2% | 1.1×10^9 PFU/ml | 22.7% | > 200 µM | > 200 µM | 18.7 µM | > 200 µM | >10.7 | –
4 | CN1CCC(CN2c3ccccc3Sc3ccccc32)C1 (centres unmarked) [Methdilazine] | 19.1% | – | 22.5% | – | 63.8 µM | 11.3 µM | – | 5.6 | Effect on SFV entry (Rluc activity) (SFVts9-Rluc): decreased the Rluc activity; IC50 (CHIKV-Rluc; Chikungunya virus, BHK, 16 h): 84.5 µM
5 | CCCOC(=O)c1cc(O)c(O)c(O)c1 [Propyl gallate] | – | – | – | – | 103 µM | 17.9 µM | – | 5.8 | –
6 | NC(=O)c1ncn([C@@H]2O[C@H](CO)[C@@H](O)[C@H]2O)n1 [Ribavirin] | – | 2.1×10^8 PFU/ml | – | 28.1 µM | > 200 µM | ~100 µM | 51.8 µM | – | Change of replicon IC50 with guanosine supplementation (CHIKV replicon): increased by at least two orders of magnitude; IC50 (CHIKV replicon; [7]): 8.8 µM; IC50 (CHIKV replicon; [8]): 25.4 µM; IC50 (BHK-CHIKV-NCT cells): > 200 µM; Decrease of SFV titer versus untreated control (SFV [1]): approximately one order of magnitude; IC50 (SFV-Rluc [2]): 95.1 µM
7 | CCN(CC)c1ccc2cc(C(=O)c3cccs3)c(=O)oc2c1 [7-Diethylamino-3-thenoylcoumarin] | 36.9% | – | 15.6% | – | – | – | – | – | IC50 (BHK cells; [9]): 39.1 µM; IC50 (SFV-Rluc [2]): 5.1 µM
8 | CC(=O)c1ccc(O)cc1 [4-Hydroxyacetophenone] | 94.5% | – | 29.4% | – | 164 µM | 21.1 µM | – | 7.8 | –
9 | C[C@@H]1O[C@@H](Oc2c(-c3ccc(O)c(O)c3)oc3cc(O)cc(O)c3c2=O)[C@H](O)[C@H](O)[C@H]1O [Quercitrin] | – | – | – | – | > 200 µM | 23.7 µM | – | >8.4 | –
10 | O=C(O)c1ccc(O)c(O)c1 [Protocatechuic acid] | 105.4% | 2.4×10^9 PFU/ml | 21.1% | > 200 µM | > 200 µM | 8 µM | > 200 µM | >25.0 | –
11 | COc1c2ccoc2cc2oc(=O)ccc12 [Bergapten] | – | 1.2×10^8 PFU/ml | – | 9.2 µM | > 200 µM | 8.1 µM | 16.2 µM | >24.6 | –
12 | COc1c(C)c2c(c(O)c1C/C=C(\C)CCC(=O)O)C(=O)OC2 [Mycophenolic acid, reference compound] | – | 1.2×10^8 PFU/ml | – | 39 µM | > 200 µM | ~100 µM | 44.4 µM | >1.7 | Change of replicon IC50 with guanosine supplementation (CHIKV replicon): increased by at least two orders of magnitude; IC50 (CHIKV replicon; [7]): ~1 µM; IC50 (CHIKV replicon; read-out: EGFP IC50): 1.5 µM; IC50 (BHK-CHIKV-NCT cells): > 200 µM; Decrease of SFV titer versus untreated control (SFV [1]): approximately one order of magnitude; IC50 (SFV-Rluc [2]): 121 µM
13 | CN(C)CCC=C1c2ccccc2COc2ccccc21 [Doxepin] | – | 3.6×10^8 PFU/ml | – | – | – | – | – | – | –
14 | CCN(CC)C(C)CN1c2ccccc2Sc2ccccc21 (centres unmarked) [Ethopropazine] | – | 8.1×10^8 PFU/ml | – | 17.1 µM | 167 µM | 16 µM | 21.4 µM | 10.4 | Effect on SFV entry (Rluc activity) (SFVts9-Rluc): decreased the Rluc activity; IC50 (CHIKV-Rluc; Chikungunya virus, BHK, 16 h): 61.5 µM
15 | N/C(CC(O)COc1cccc2ccccc12)=N/O (centres unmarked) [Nadoxolol] | 69.2% | 9.2×10^7 PFU/ml | 20.8% | 15.2 µM | > 200 µM | 16.4 µM | 8.2 µM | >12.2 | –
16 | CN(C)CCCN1c2ccccc2Sc2ccc(Cl)cc21 [Chlorpromazine] | – | – | – | – | 67.3 µM | 15.7 µM | – | – | Effect on SFV entry (Rluc activity) (SFVts9-Rluc): decreased the Rluc activity; IC50 (CHIKV-Rluc; Chikungunya virus, BHK, 16 h): 39.4 µM

Row | Compound | CHIKV replicon % left (CHIKV replicon) | SFV yield (SFV [1]) | SFV replication % left (surviving fraction, remaining percentage of SFV replication) (SFV-Rluc [2]) | IC50 (SFV [3]; [5]) | IC50 (BHK cells; [6]) | IC50 (SFV-Rluc [4]) | IC50 (SINV; Sindbis virus, BHK, 24 h) | SI (selectivity index) (SFV-Rluc [2]) | also measured
17 | Nc1ncnc2c1ncn2[C@@H]1O[C@H](CO)[C@@H](N)[C@H]1O [3′-NH2-3′-deoxyadenosine, 3′-amino-3′-deoxyadenosine] | – | 2.7×10^7 PFU/ml | – | 17.5 µM | 174 µM | 16.2 µM | 23.4 µM | 10.7 | IC50 (CHIKV replicon; [7]): 34 µM; IC50 (CHIKV replicon; [8]): 62.4 µM; IC50 (BHK-CHIKV-NCT cells): 187 µM; Decrease of SFV titer versus untreated control (SFV [1]): two orders of magnitude
18 | C#C[C@]1(O)CC[C@H]2[C@@H]3CCc4cc(O)ccc4[C@H]3CC[C@@]21C [17-Ethinylestradiol] | – | 9.0×10^8 PFU/ml | – | 63 µM | > 200 µM | 9.5 µM | 56.8 µM | >21.1 | –
19 | CCN(CC)c1ccc2cc(-c3nc4ccccc4n3C)c(=O)oc2c1 [Coumarin 30] | 44.1% | 5.0×10^8 PFU/ml | 12.3% | – | – | – | – | – | IC50 (SFV [3]; BHK cells, MOI 0.01, 22 h post-infection, WST-1, 200 µM to 0.1 µM): 5.5 µM; IC50 (BHK cells; [9]): 92.4 µM; IC50 (SINV; BHK cells, MOI 0.01, 24 h post-infection, WST-1, 200 µM to 0.1 µM): 11.8 µM; IC50 (SFV-Rluc [2]): 0.4 µM; IC50 (CHIKV-Rluc): 6.4 µM
20 | CC1=CC(=O)c2ccccc2C1=O [Menadione] | – | – | – | – | 21.9 µM | 7.8 µM | – | 2.8 | –
21 | CCSc1ccc2c(c1)N(CCCN1CCN(C)CC1)c1ccccc1S2 [Thiethylperazine] | 101.1% | – | 26.5% | – | 83.1 µM | 15 µM | – | 5.5 | Effect on SFV entry (Rluc activity) (SFVts9-Rluc): decreased the Rluc activity; IC50 (CHIKV-Rluc; Chikungunya virus, BHK, 16 h): 63.8 µM
22 | O=c1cc(-c2ccccc2)oc2c1ccc1ccccc12 [Alphanaphtoflavone] | – | – | – | – | – | – | – | – | IC50 (BHK cells; [9]): > 200 µM; IC50 (SFV-Rluc [2]): 24.1 µM
23 | OCCN1CCN(CCCN2c3ccccc3Sc3ccc(Cl)cc32)CC1 [Perphenazine] | 88.1% | – | 10.6% | – | 155 µM | 25.1 µM | – | 6.2 | Effect on SFV entry (Rluc activity) (SFVts9-Rluc): decreased the Rluc activity; IC50 (CHIKV-Rluc; Chikungunya virus, BHK, 16 h): 48.1 µM
24 | Oc1cc(O)c2c(c1)O[C@H](c1cc(O)c(O)c(O)c1)[C@H](O)C2 [(-)-Epigallocatechin] | 89.9% | – | 101.9% | – | – | – | – | – | –
25 | COc1ccc(OC)c(C(O)C(C)N)c1 (centres unmarked) [Methoxamine hydrochloride] | 48.2% | – | 98.4% | – | – | – | – | – | –
26 | Cc1c(N(C)CS(=O)(=O)[O-])c(=O)n(-c2ccccc2)n1C.[Na+] [Metamizol sodium] | 105.1% | – | 86.0% | – | – | – | – | – | –
27 | COc1ccc(-c2cc(=O)c3c(O)cc(O)cc3o2)cc1 [Acacetin] | 103.3% | – | 78.1% | – | – | – | – | – | –
28 | CNC(C)Cc1ccc(O)cc1.CNC(C)Cc1ccc(O)cc1.O=S(=O)(O)O (centres unmarked) [Pholedrine sulfate] | 81.5% | – | 92.8% | – | – | – | – | – | –
29 | NCCCS(=O)(=O)O [Homotaurine] | 89.2% | – | 118.7% | – | – | – | – | – | –
30 | CC(N)C(O)c1ccc(O)c(O)c1 (centres unmarked) [Nordefrin hydrochloride] | 104.2% | – | 118.0% | – | – | – | – | – | –
31 | CC(C)NCC(O)c1ccccc1Cl.Cl.O (centres unmarked) [Clorprenaline hydrochloride] | 102.2% | – | 63.7% | – | – | – | – | – | –
32 | O=C(N[C@H](CO)[C@H](O)c1ccc([N+](=O)[O-])cc1)C(Cl)Cl [Chloramphenicol] | 53.2% | – | 73.8% | – | – | – | – | – | –
